In patent US20220142967A1, “Methods and Compositions for the Treatment of Multiple Sclerosis” (SYMBIONYX PHARMACEUTICALS INC, priority 2018, published 2022):
Counter-ions that a name gives are not always drawn.

What was measured:
[1] = test system: NRF2 (NF-E2-related factor 2) transcription factor; assay: Cignal ARE Reporter Assay, NRF2-mediated luciferase gene expression in HEK293 cells; assay type: cell-based; conditions: HEK293, 24 h
Protocol: 2017 December; 23(14):1875-1883. doi: 10.1177/1352458517690617. Epub 2017 Feb.
The experiments were performed using HEK293 cells (Sigma, St. Louis, Mo.; cat. #85120602) seeded at 50,000 per well in a 96 well white opaque-wall tissue culture plates. Cells were transfected by mixing Cignal Reporter Assay firefly/renilla luciferase constructs (cat. # CCS-5020L; Qiagen) with Attractene Transfection Reagent (Qiagen) in Opti-MEM (ThermoFisher Scientific, Waltham, Mass.) supplemented with 1% MEM Non-essential amino acid solution without L-glutamine (Sigma; cat. #M7145). After medium change test materials were added and their effect on NRF2 induction was quantified 24 h later with the Dual-Luciferase Reporter Assay System (cat. #E1960; Promega, Madison, Wis.).
The ARE (antioxidant response element) reporter is a mixture of a Nrf2-responsive luciferase construct encoding the firefly luciferase reporter gene under the control of a minimal (m)CMV promoter and tandem repeats of the ARE transcriptional response element, and a constitutively expressing Renilla element (40:1), which acts as an internal control for normalizing transfection efficiencies and monitoring cell viability. […] Signal quantification was obtained with ThermoFisher Scientific Luminoskan Ascent Microplate Luminometer.

cultured astrocytes = assay: RNA-seq of cultured astrocytes compared with MS patient white matter astrocytes (GSE83670); assay type: cell-based, human
Protocol: Previously, Waller et al. 2016 (J Neuroimmunol 299:139-146) used laser capture microdissection (LCM) to isolate astrocytes from normal appearing white matter in MS patients and CTL subjects (GEO dataset GSE83670; PMID: 27125112).
cDNA sequencing was performed by the University of Michigan sequencing core facility (50 cycle single end Illumina HiSeq 2000). The FASTX-Toolkit was used to filter reads by removing low quality sequences and initial quality assessments were performed using FastQC. Quality-filtered reads were mapped to the human genome (hg38/GRCh38, UCSC) using tophat2 with default settings, except multi-mapping of reads to multiple genome locations was disallowed (settings: -g 1 —no-coverage-search). The hg38/GRCh38 genome is the most recent release available from UCSC. HTSeq was used to tabulate the number of reads mapping to each genome feature and Cufflinks was used to calculate FPKM estimates and associated confidence intervals. RSeQC was used to assess quality of mapping and calculate the percentage of mapped reads. The negative binomial model (edgeR) was used to evaluate differential expression, with read counts normalized using the weighted trimmed mean of M-values method, and dispersions estimated using the Cox-Reid (CR)-adjusted likelihood approach. Differential expression analyses were performed using genes with detectable expression in at least 1 of 4 samples involved in a given comparison. A gene was considered to have detectable expression in a sample if the count per million mapped reads (cpm) estimate was greater than 0.20 and if the lower bound of the FPKM 95% confidence interval was greater than zero.
FIG. 3 presents in scatterplot and histogram format the results of the study on the astrocytes. Scatterplots (A) and (D) compare fold change (FC) estimates in DMF-treated (A) and IDMF-treated (D) astrocytes to LCM-dissected astrocytes in MS patients and healthy controls (CTLs). Each point represents a protein-coding gene and the light colored ellipses outline the 90% of genes closest to the bivariate mean based upon the Mahalanobis distance. The Spearman rank correlation coefficient estimate is shown (upper-left). The proportion of genes within each quadrant is indicated in the upper margin (P<0.05, Fisher's exact test), wherein the quadrants are defined by a vertical and horizontal line through the “1” in each axis with the proportion corresponding, left to right to the upper left, the upper right, the lower right and lower left quadrants, respectively. Gene set overlap is presented in (B), (C), (E) and (F) wherein genes within each set were altered with a P<0.05 threshold. P-values from the test of overlap significance are shown (bottom margin, Fisher's exact test). […]

[2] = target: T1, carboxylesterase 2 (CES2) (Homo sapiens, UniProt O00748); assay: Carboxylesterase hydrolysis IDMF v DMF; assay type: in vitro ADME; conditions: for remaining parent compound: 1 mg/ml CES2, 37° C., pH 7.4
T1 sequence (O00748 27-559): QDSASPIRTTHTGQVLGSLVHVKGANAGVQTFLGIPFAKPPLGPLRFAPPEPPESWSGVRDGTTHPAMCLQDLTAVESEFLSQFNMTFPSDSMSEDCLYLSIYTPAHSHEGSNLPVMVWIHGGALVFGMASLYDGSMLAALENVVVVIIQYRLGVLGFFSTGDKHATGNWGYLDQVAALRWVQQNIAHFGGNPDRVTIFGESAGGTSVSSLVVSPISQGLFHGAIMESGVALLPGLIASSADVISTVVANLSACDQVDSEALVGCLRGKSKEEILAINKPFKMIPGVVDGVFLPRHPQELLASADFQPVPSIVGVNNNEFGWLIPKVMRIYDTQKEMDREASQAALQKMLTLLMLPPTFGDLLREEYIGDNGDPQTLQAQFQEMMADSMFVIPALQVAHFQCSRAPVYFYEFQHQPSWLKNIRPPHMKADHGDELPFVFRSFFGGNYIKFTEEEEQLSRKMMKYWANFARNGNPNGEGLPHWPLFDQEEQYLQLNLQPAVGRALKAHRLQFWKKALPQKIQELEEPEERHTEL
Protocol: IDMF and DMF were subjected to carboxylesterase hydrolysis. […] 1 mg/ml carboxylesterase 2 (CES2) was added to each solution and the solutions incubated at 37° C. for the time periods set forth in Table 5. […] Isosorbide was quantified using CAD. Mobile phase used for the study: 0.1% Formic acid in water; B: Methanol. Column: Luna C18 4.6 mm×100 mm, 5 u (Phenomenex). Flow rate: 1.0 ml/min.

[3] = target: T1, carboxylesterase 2 (CES2); assay: Carboxylesterase hydrolysis IDMF v DRF; assay type: in vitro ADME; conditions: 20 μl of 1 mg/ml CES2, 37° C., pH 7.4
Protocol: 20 μl of 1 mg/ml carboxylesterase 2 (CES2) was added to each solution and the solutions incubated at 37° C. for the time periods set forth in Table 5. […] Although tolerable for normal patients, HES is undesirable and detrimental for those individuals have kidney and/or liver issues

number of genes decreased by IDMF (P<0.05) and increased in MS (P<0.05) (cultured astrocytes): 82 genes | remaining parent compound ([2]; 0 minutes): 1.027 mM | remaining parent compound ([2]; 15 minutes): 0.072 mM | time by which essentially all is hydrolyzed ([2]; CES2, 37° C.): ≤ 15 min | remaining parent compound ([3]; 0 minutes): 1.086 mM | remaining parent compound ([3]; 15 minutes): 0.113 mM
Compound: COC(=O)/C=C/C(=O)O[C@H]1CO[C@H]2[C@@H]1OC[C@H]2OC(=O)/C=C/C(=O)OC [IDMF, isosorbide di-(methyl fumarate)]
Fold Change v. water control (1), NRF2-mediated luciferase gene expression ([1]; 1 μg/ml): 2.78 fold | Fold Change v. water control (1), NRF2-mediated luciferase gene expression ([1]; 10 μg/ml): 4.61 fold | protein-coding genes increased by IDMF (FC>1.00) but decreased in MS patients (FC<1.00) (cultured astrocytes): 35.08% | correlation of genome-wide expression responses with those observed in MS patients (Spearman r) (cultured astrocytes; cultured astrocytes vs. LCM-dissected MS patient astrocytes): negatively correlated
